Reference: patent US7511173B2, “Creatine salt with enhanced nutritional and therapeutic efficacy and compositions containing same” (Iovate T & P Inc., priority 2004, dated 2009)

Tests used:
Format in all cases: physicochemical
pH of aqueous solution = settings: c = 1% in water
hygroscopicity = assay: hygroscopicity
[1] = stability in aqueous solution (titer, degradation into creatinine); settings: solution of about 15 mg/ml (1.5%), after 10 days at room temperature

CN(CC(=O)O)C(=N)N.NCC(=O)O [creatine glycinate]
pH (pH of aqueous solution): 6; c = 1% in water | hygroscopicity (hygroscopicity): non-hygroscopic

citrate
titer drop in aqueous solution [1]: about 50%
